Earlier results on one compound are cited in US20210023267A1, “POLYMER-PERMEATED GRAFTS AND METHODS OF MAKING AND USING THE SAME” (BIOAESTHETICS CORPORATION, priority 2018, published 2021).

The test system of this series is S. aureus.

Molecules are shown by their SMILES. Converted amounts (≈) assume the structure as drawn. Read-outs that look alike come from different tables or passages of the source.

As to `CN[C@H](CC(C)C)C(=O)N[C@H]1C(=O)N[C@@H](CC(N)=O)C(=O)N[C@H]2C(=O)N[C@H]3C(=O)N[C@H](C(=O)N[C@H](C(=O)O)c4cc(O)cc(O)c4-c4cc3ccc4O)[C@H](O)c3ccc(c(Cl)c3)Oc3cc2cc(c3O[C@@H]2O[C@H](CO)[C@@H](O)[C@H](O)[C@H]2O[C@H]2C[C@](C)(N)[C@H](O)[C@H](C)O2)Oc2ccc(cc2Cl)[C@H]1O` [vancomycin], the minimum inhibitory concentration is 1 µg/mL (≈ 0.69 µM) (S. aureus) and 16 µg/mL (≈ 11 µM) (S. aureus strains with complete resistance to vancomycin).
